This passage reports IC50 and inhibition results from US10940139B2, “Compounds that interact with the Ras superfamily for the treatment of cancers, inflammatory diseases, rasopathies, and fibrotic disease” (Shy Therapeutics LLC, priority 2017, dated 2021).

One experiment concerns MAPK phosphorylation in PANC-1 pancreatic cancer cell line. The experiment can be described thus: MAPK cell-based phosphorylation assay (cell-direct ELISA, EGF stimulation). Conditions: Homo sapiens. An outline of the steps: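 Cell-direct ELISA measured phospho-MAPK, with fluorescence read at 595 nm from AmpliFlu Red. Before fixation, PANC-1 cells starved overnight received 6 hours of compound (30 μM single dose or serial dilutions, 0.3% DMSO, 37° C), followed by 1.5 ng/ml EGF for 15 min.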
With `N#Cc1ncn(-c2nc(-c3ccccn3)nc3sc(-c4ccccc4)cc23)n1` [drawing 1083], the IC50 was in the range of 2 to 10 µM.

In the case of `COc1ccnc(-c2nc(O)c3c(Br)csc3n2)c1` [drawing 1133], the IC50 fell in the range of 2 to 10 µM.

As to `CC1CN(c2ccccc2)CCN1C(=O)c1csc2c(O)nc(-c3ccccn3)nc12` (stereo not shown) [drawing 1143], the IC50 was more than 30 µM.

Consider `Oc1nc(-c2ccccn2)nc2c(-c3ccc(F)cc3F)csc12` [drawing 1210], for which the IC50 was 2 to 10 µM.

Staying with this experiment, now noted: Homo sapiens, * = tested at 10 μM.
Take `Oc1nc(-c2ccccn2)nc2c(CC3CNC3)csc12` [drawing 1279]: testing at 10 µM gave an inhibition of 0%.

Compound `Oc1nc(-c2ccccn2)nc2c(-c3ccc(OC4CCOCC4)cc3)csc12` [drawing 1206] came in with an inhibition at 10 µM of 1 to 25%.

For `N#Cc1cccc(-c2csc3c(O)nc(-c4ccccn4)nc23)c1` [drawing 1264], 10 µM produced 0% inhibition.

As to `O=C(CCc1cncnc1)Nc1nc(-c2ccccn2)nc2sccc12` [drawing 1228], the inhibition at 10 µM is 1 to 25%.

The compound `CCOCCNc1nc(-c2nccn2C)nc2sc(-c3ccccc3)c(-c3ccccc3)c12` [drawing 1335] showed an inhibition at 10 µM of 76 to 100%.

Compound `COCC(C)Nc1nc(-c2ccccn2)nc(C(=O)NCCCc2c[nH]cn2)c1Oc1ccccc1` (stereo not shown) [drawing 1310] registered an inhibition at 10 µM of 1 to 25%.

Take `O=C(c1csc2c(O)nc(-c3ccccn3)nc12)N1CCNC(c2ccc(Cl)cc2)C1` (stereo not shown) [drawing 1285]: at 10 µM the inhibition was 0%.

Take `O=C(NCCc1ccnc(O)n1)c1csc2nc(-c3ccccn3)nc(N3CCOCC3)c12` [drawing 1235]: the inhibition at 10 µM lay in the range of 1 to 25%.

For `Cc1sc2c(O)nc(-c3nccn3C)nc2c1-c1ccc(F)cc1F` [drawing 1381], the inhibition at 10 µM amounted to 0%.

`Cc1sc2c(O)nc(-c3nccn3C)nc2c1-c1ccc(OC(C)C)c(F)c1` [drawing 1370] registered an inhibition at 10 µM of 25 to 50%.

Consider `Oc1nc(-c2ccccn2)nc2c(-c3ccc(OC4CCCCC4)cc3)csc12` [drawing 1224], for which the inhibition at 10 µM is 25 to 50%.

`Nc1nc(-c2ccccn2)nc2c(-c3ccccn3)csc12`: the inhibition at 10 µM lay within 76 to 100%.

Consider `O=C(COCc1ccncc1)Nc1nc(-c2ccccn2)nc2sccc12` [drawing 1185], for which the inhibition at 10 µM was in the range of 1 to 25%.

Turning to `Cc1cc(OC(F)F)ccc1-c1csc2c(O)nc(-c3ccccn3)nc12` [drawing 1217], the inhibition at 10 µM was 1 to 25%.

Consider `COCCNc1nc(-c2cn(C)cn2)nc2sc(-c3ccccc3)c(-c3ccccc3)c12` [drawing 1343], for which the inhibition at 10 µM lay within 76 to 100%.

In turn, `Cn1cnc(-c2nc(O)c3sc(-c4ccncc4)c(-c4ccccc4)c3n2)c1` [drawing 1309] gave an inhibition at 10 µM of 0%.

In the case of `CC(C)Cc1csc2c(O)nc(-c3ccccn3)nc12` [drawing 1255], the inhibition at 10 µM is 76 to 100%.

Regarding `Cc1ccc(-c2csc3c(O)nc(-c4ccccn4)nc23)cc1` [drawing 1320], the inhibition at 10 µM was in the range of 1 to 25%.

On to `Nc1nc(O)c2sc(-c3cccc(C(=O)N4CCC(O)C4)c3)cc2n1` (stereo not shown) [drawing 1303], for which testing at 10 µM gave an inhibition of 0%.

`Cn1ccnc1-c1nc(NCCCO)c2c(-c3ccccc3)c(-c3ccccc3)sc2n1` [drawing 1339]: the inhibition at 10 µM fell in the range of 1 to 25%.

In the case of `Oc1nc(-c2ccccn2)nc(Oc2cccc(C(F)(F)F)c2)c1O` [drawing 1318], the inhibition at 10 µM lay within 1 to 25%.

Turning to `COCCCNc1nc(-c2nccn2C)nc2sc(-c3ccccc3)c(-c3ccccc3)c12` [drawing 1330], the inhibition at 10 µM is 76 to 100%.

`COc1ccc(-c2csc3c(O)nc(-c4nccn4C)nc23)cn1` [drawing 1373] gave an inhibition at 10 µM of 51 to 75%.

As for `Cn1ccnc1-c1nc(O)c2sc(-c3ccccc3)c(-c3ccccc3Cl)c2n1` [drawing 1355], the inhibition at 10 µM lay within 51 to 75%.

With `NC(=O)C1CCCN1C(=O)c1cccc(-c2cc3nc(N)nc(O)c3s2)c1` (stereo not shown) [drawing 1304], the inhibition at 10 µM fell in the range of 1 to 25%.

The compound `Cc1nn(C(C)C)cc1-c1csc2c(O)nc(-c3ccccn3)nc12` [drawing 1267] showed an inhibition at 10 µM of 0%.

Turning to `O=C(NCCc1ccncn1)c1csc2nc(-c3ccccn3)nc(N3CCOCC3)c12` [drawing 1261], at 10 µM the inhibition was 0%.

In the case of `Oc1nc(-c2ccccn2)nc2c(-c3ccc(OC4CCCC4)cc3)csc12` [drawing 1203], the inhibition at 10 µM is 25 to 50%.

With `Oc1nc(-c2ccccn2)nc2c(-c3cc(CN4CCCC4)ccc3F)csc12` [drawing 1263], 10 µM produced 0% inhibition.

`COc1cnc(CNC(=O)c2c(C)sc3c(O)nc(-c4ccccn4)nc23)[nH]c1=O` [drawing 1283] returned an inhibition at 10 µM of 0%.

Take `Cc1cnccc1-c1csc2c(O)nc(-c3ccccn3)nc12` [drawing 1225]: the inhibition at 10 µM is 1 to 25%.

The compound `Cc1sc2c(N)nc(-c3ccccn3)nc2c1Br` [drawing 1230] came in with an inhibition at 10 µM of 1 to 25%.

`CN(C)CCOc1cccc(-c2csc3c(O)nc(-c4ccccn4)nc23)c1` [drawing 1253]: the inhibition at 10 µM fell in the range of 76 to 100%.

The compound `Cc1sc2c(O)nc(-c3ccccn3)nc2c1C(=O)N1CCN(c2ccccc2)CC1` [drawing 1269] gave an inhibition at 10 µM of 1 to 25%.

Regarding `Oc1nc(-c2ccccn2)nc2cc(-c3ccccc3Cl)sc12` [drawing 1316], the inhibition at 10 µM lay in the range of 1 to 25%.

In turn, `Oc1nc(-c2ccccn2)nc2c(-c3cc(F)cc(F)c3)csc12` [drawing 1237] showed an inhibition at 10 µM of 76 to 100%.

In turn, `Cn1ccnc1-c1nc(NCCOC(F)(F)F)c2c(-c3ccccc3)c(-c3ccccc3)sc2n1` [drawing 1328] yielded an inhibition at 10 µM of 76 to 100%.

For `Cn1ccnc1-c1nc(O)c2scc(-c3ccccc3)c2n1` [drawing 1374], the inhibition at 10 µM was in the range of 76 to 100%.

In the case of `CC(C)c1nn(C)cc1-c1csc2c(O)nc(-c3ccccn3)nc12` [drawing 1262], at 10 µM the inhibition was 0%.

For `Cc1sc2c(O)nc(-c3nccn3C)nc2c1-c1ccc(OCC(C)C)nc1` [drawing 1360], the inhibition at 10 µM is 25 to 50%.

Take `CC(C)Oc1cnc(-c2ccccn2)nc1O` [drawing 1252]: the inhibition at 10 µM lay in the range of 1 to 25%.

Regarding `COCCNc1nc(-c2ccccn2)nc2sc(-c3ccccc3)c(-c3ccccn3)c12` [drawing 1380], the inhibition at 10 µM is 0%.

With `Oc1nc(-c2ccccn2)nc2c(-c3ccc(F)cc3F)csc12` [drawing 1210], the inhibition at 10 µM is 76 to 100%.

The experiment is the same for the next values; noted with them: Homo sapiens, at 30 μM.
Regarding `FC(F)(F)c1csc2nc(-c3ccccn3)nc(N3CCOCC3)c12` [drawing 1132], the inhibition at 30 µM lay in the range of 1 to 25%.

`O=C(Nc1nnc(-c2ccccn2)[nH]1)c1ccn(-c2cccc(F)c2)n1` [drawing 999] returned an inhibition at 30 µM of 1 to 25%.

The compound `COCCN(CCOC)c1nc(-c2ccccn2)nc2scc(C(=O)NCCc3ccc(OC)nc3)c12` [drawing 1157] displayed an inhibition at 30 µM of 1 to 25%.

As for `O=S1(=O)CCC(Nc2nc(-c3ccccn3)nc3scc(-c4ccccc4)c23)C1` (stereo not shown) [drawing 1100], the inhibition at 30 µM fell in the range of 1 to 25%.

The compound `O=C(c1ccc(=O)[nH]n1)N1CCCc2c(O)nc(-c3ccccn3)nc21` [drawing 1059] showed an inhibition at 30 µM of 1 to 25%.

`COc1ccc(CCC(=O)Nc2nnc(-c3ccccn3)[nH]2)cc1F` [drawing 994] displayed an inhibition at 30 µM of 51 to 75%.

Take `O=C(c1csc2c(O)nc(-c3ccccn3)nc12)N1CCN(c2ccccc2F)CC1` [drawing 1121]: the inhibition at 30 µM was 1 to 25%.

On to `COCCCCNC(=O)c1csc2nc(-c3ccccn3)nc(N3CCN(C)CC3)c12` [drawing 1131], for which the inhibition at 30 µM was in the range of 1 to 25%.

Take `O=C(c1csc2c(O)nc(-c3ccccn3)nc12)N1CCN(c2cccc(F)c2)CC1` [drawing 1137]: the inhibition at 30 µM lay in the range of 1 to 25%.

As to `O=S(=O)(Oc1cc(C(F)(F)F)cc(C(F)(F)F)c1)N1CCc2ccccc2C1` [drawing 1052], the inhibition at 30 µM lay within 1 to 25%.

`CC(C)(C(=O)Nc1ccnc(-c2ccccn2)n1)c1ccc(C#N)cc1` [drawing 1135]: the inhibition at 30 µM was 25 to 50%.

Consider `CC1CCN(C(=O)c2csc3c(O)nc(-c4ccccn4)nc23)CC1` [drawing 1065], for which the inhibition at 30 µM fell in the range of 1 to 25%.

As for `CSc1nc(C2CC2)cc(C(=O)NCCc2ccc(S(=O)(=O)NC(=O)c3cc(C4CC4)nc(SC)c3C#N)cc2)c1C#N` [drawing 1055], the inhibition at 30 µM was in the range of 76 to 100%.

In turn, `O=C(c1csc2c(O)nc(-c3ccccn3)nc12)N1CCOC(c2ccc(F)cc2)C1` (stereo not shown) [drawing 1134] came in with an inhibition at 30 µM of 1 to 25%.

On to `CC(O)CNc1nc(-c2ccccn2)nc2scc(-c3ccccc3)c12` (stereo not shown) [drawing 1042], for which the inhibition at 30 µM fell in the range of 25 to 50%.

`CC(Oc1ccccc1C#N)C(=O)Nc1nnc(-c2ccccn2)[nH]1` (stereo not shown) [drawing 1013] showed an inhibition at 30 µM of 51 to 75%.

For the compound `O=C(Nc1nnc(-c2ccccn2)[nH]1)C1Cc2cc(Cl)ccc2O1` (stereo not shown) [drawing 1025], the inhibition at 30 µM was 1 to 25%.

Regarding `O=C1CN(c2nc(-c3ccccn3)nc3scc(-c4ccccc4)c23)CCN1` [drawing 1082], the inhibition at 30 µM fell in the range of 1 to 25%.

In the case of `COc1cnc(CNC(=O)Cn2cnc3nc(-c4ccccn4)nc(N4CCOCC4)c32)[nH]c1=O` [drawing 1183], the inhibition at 30 µM lay in the range of 1 to 25%.

`CC(C)CNC(=O)CN1CCN(c2nc(-c3ccccn3)nc3scc(-c4ccccc4)c23)CC1` [drawing 1099] displayed an inhibition at 30 µM of 1 to 25%.

On to `O=C(Cc1ccc2c(c1)OCCO2)Nc1nnc(-c2ccccn2)[nH]1` [drawing 1026], for which the inhibition at 30 µM was 1 to 25%.

The compound `N#Cc1ncn(-c2nc(-c3ccccn3)nc3sc(-c4ccccc4)cc23)n1` [drawing 1083] had an inhibition at 30 µM of 76 to 100%.

As to `COc1cccc(C2CN(C(=O)c3csc4c(O)nc(-c5ccccn5)nc34)CCO2)c1` (stereo not shown) [drawing 1126], the inhibition at 30 µM is 1 to 25%.

On to `COc1ccnc(-c2nc(O)c3c(Br)csc3n2)c1` [drawing 1133], for which the inhibition at 30 µM fell in the range of 76 to 100%.

For the compound `O=C(CN1CCN(c2nc(-c3ccccn3)nc3scc(-c4ccccc4)c23)CC1)N1CCCC1` [drawing 1104], the inhibition at 30 µM is 1 to 25%.

In turn, `NC(=O)C1CCCN(c2nc(-c3ccccn3)nc3scc(-c4ccccc4)c23)C1` (stereo not shown) [drawing 1107] gave an inhibition at 30 µM of 1 to 25%.

Consider `CS(=O)(=O)CCCNC(=O)c1csc2nc(-c3ccccn3)nc(N3CCOCC3)c12` [drawing 1170], for which the inhibition at 30 µM was 25 to 50%.

The compound `CC1CN(c2ccccc2)CCN1C(=O)c1csc2c(O)nc(-c3ccccn3)nc12` (stereo not shown) [drawing 1143] had an inhibition at 30 µM of 51 to 75%.

With `COc1cc(OC)cc(N2CCN(C(=O)c3csc4c(O)nc(-c5ccccn5)nc34)CC2)c1` [drawing 1140], the inhibition at 30 µM lay in the range of 1 to 25%.
